In Sander's compilation of Henry's law constants (doi:10.1021/ac00058a023):

Assay: Henry solubility constant Hcp at 298.15 K (mol/(m3 Pa))
Details: reference: Li and Carr (1993)

Row | Compound | Henry solubility constant Hcp
1 | Fc1ccccc1 [fluorobenzene] | 0.0011
2 | CCCCC#N [pentanenitrile] | 0.14
3 | CC(C)c1ccccc1 [(2-propyl)-benzene] | 0.00091
4 | CCCO [1-propanol] | 1.4
5 | CCO [ethanol] | 1.9
6 | Clc1ccccc1 [chlorobenzene] | 0.0025
7 | ClCc1ccccc1 [(chloromethyl)-benzene] | 0.012
8 | Ic1ccccc1 [iodobenzene] | 0.0076
9 | Cc1ccccc1C [1,2-dimethylbenzene] | 0.0019
10 | Cc1cccc(C)c1 [1,3-dimethylbenzene] | 0.0013
11 | CCc1ccccc1 [ethylbenzene] | 0.0013
12 | Cc1ccc(C)cc1 [1,4-dimethylbenzene] | 0.0013
13 | COc1ccccc1 [methoxybenzene] | 0.032
14 | CCCCCO [1-pentanol] | 0.84
15 | CCCOCCC [dipropyl ether] | 0.003
16 | CCOc1ccccc1 [ethoxybenzene] | 0.017

Row | Compound | Henry solubility constant Hcp
17 | CCCc1ccccc1 [propylbenzene] | 0.00093
18 | ClC(Cl)(Cl)Cl [tetrachloromethane] | 0.00023
19 | c1ccccc1 [benzene] | 0.0017
20 | ClC(Cl)C(Cl)Cl [1,1,2,2-tetrachloroethane] | 0.029
21 | CC(C)C#N [2-methylpropanenitrile] | 0.094
22 | Cc1cccc([N+](=O)[O-])c1 [3-nitrotoluene] | 0.28
23 | CC#N [ethanenitrile] | 0.46
24 | Cc1ccccc1 [methylbenzene] | 0.0016
25 | CCCCc1ccccc1 [butylbenzene] | 0.00071
26 | Brc1ccccc1 [bromobenzene] | 0.0044
27 | CCCCCCCC(C)=O [2-nonanone] | 0.041
28 | CCCCCCCC=O [octanal] | 0.021
29 | CC(C)OC(C)C [diisopropyl ether] | 0.0042
30 | Cc1cc(C)cc(C)c1 [1,3,5-trimethylbenzene] | 0.0013
31 | CCCCCCO [1-hexanol] | 0.64
